Experimental data published in patent US11903987B2, “Artificial compositions comprising corosolic acid, oleanolic acid; and ursolic acid in a form of an emulsion, salve, ointment, suspension, or gel” (National Guard Health Affairs, priority 2018, dated 2024).

How the values were obtained:
[1] = test system: human skin warts; experiment: topical treatment of human skin warts; type: in vivo; settings: topical application
Procedure: Initial steps involved extracting Tecoma stans leaves with methanol or ethanol alcohol. Then, the extract was obtained via evaporating the alcohol and re-suspending the dry matter in pure DMSO (dimethylsulphoxide) at a concentration of 20 mg/mL DMSO. […] As disclosed herein, 14 compounds have been isolated from dry leaves of Tecoma stans, four of which are known for their antidiabetic effect and ability to reduce the glycemic index. After identifying the 14 compounds in the methanolic extract from the dry leaves, each compound was independently tested on human skin warts. […] Therefore, corosolic acid was mixed with its two related compounds, namely oleanolic acid (FIG. 1E) and ursolic acid (FIG. 1F), isolated from the same extract. Compositions containing a mixture of these three compounds were prepared by mixing the compounds in an ointment at a concentration of 1 mg/gm of each compound per a total weight of the ointment, emulsifying the compounds in a lotion base at a concentration of 0.1 mg/mL of each compound per a total volume of the lotion, or suspending three compounds together in DMSO at a concentration of 1 mg/mL of each compound per a total volume of DMSO. The compositions were applied topically twice a day to the desired skin area as indicated in each case (see FIGS. 3[…]).

[2] = skin tolerability on tested subjects after topical application; type: in vivo, human

Row | SMILES | curing effect on skin warts [1] | harmlessness on humans / skin irritation [2]
1 | C[C@H]1[C@H](C)CC[C@]2(C(=O)O)CC[C@]3(C)C(=CC[C@@H]4[C@@]5(C)C[C@@H](O)[C@H](O)C(C)(C)[C@@H]5CC[C@]43C)[C@H]12 [corosolic acid, (2α,3β)-2,3-dihydroxyurs-12-en-28-oic acid] | minor curing effect | harmless on humans, and cause no skin irritations
2 | CC1(C)CC[C@]2(C(=O)O)CC[C@]3(C)C(=CC[C@@H]4[C@@]5(C)CC[C@H](O)C(C)(C)[C@@H]5CC[C@]43C)[C@@H]2C1 [oleanolic acid] | – | harmless on humans, and cause no skin irritations
3 | C[C@H]1[C@H](C)CC[C@]2(C(=O)O)CC[C@]3(C)C(=CC[C@@H]4[C@@]5(C)CC[C@H](O)C(C)(C)[C@@H]5CC[C@]43C)[C@H]12 [ursolic acid, 3β-Hydroxy-12-ursen-28-ic acid] | – | harmless on humans, and cause no skin irritations
